# Experimental data from PubChem BioAssay AID1195 (EPA DSSTox, 2008).
# “And” between values parts separate entries of the source, which are not always exact repeats. Identical values can stand only once.
# Tested on: human maximum recommended daily dose, FDA database
# Experiment: DSSTox (FDAMDD) FDA Maximum (Recommended) Daily Dose Database
# Settings: stronger effect = lower value
# How it was run: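 MRDD values come from clinical trials with daily oral dosing, usually for 3–12 months, for the average adult, in mg/day converted to mg/kg-bw/day assuming 60 kg. Antineoplastic mg/m2 doses are divided by 37. Activity score maps log10(1/MRDD mmol) onto 1–100.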
# [1] = TherapeuticCategory: diagnostic aid
# [2] = TherapeuticCategory: antibacterial
# [3] = TherapeuticCategory: skeletal muscle relaxant
# [4] = TherapeuticCategory: antihistaminic
# [5] = TherapeuticCategory: topical antifungal
# [6] = TherapeuticCategory: anxiolytic, skeletal muscle relaxant
# [7] = TherapeuticCategory: antiarrhythmic
# [8] = TherapeuticCategory: antipsychotic
smiles,measurement,setting,value
CCC(=O)O[C@](Cc1ccccc1)(c1ccccc1)[C@H](C)CN(C)C,maximum recommended daily dose (mmol/kg-bw/day),TherapeuticCategory: narcotic analgesic,0.0191
CNC(=O)c1c(I)c(C(=O)NCC(=O)Nc2c(I)c(C(=O)O)c(I)c(C(=O)NCCO)c2I)c(I)c(N(C)C(C)=O)c1I,maximum recommended daily dose (mmol/kg-bw/day),[1],0.0788
O=C1OC(c2ccc(O)cc2)(c2ccc(O)cc2)c2ccccc21,maximum recommended daily dose (mmol/kg-bw/day),TherapeuticCategory: cathartic,0.00682
CCn1cc(C(=O)O)c(=O)c2ccc(C)nc21,maximum recommended daily dose (mmol/kg-bw/day),[2],0.287
C=C1CC[C@H](O)C/C1=C/C=C1\CCC[C@]2(C)[C@@H]([C@H](C)CCCC(C)(C)O)CC[C@@H]12,maximum recommended daily dose (mmol/kg-bw/day),TherapeuticCategory: calcium regulator,8.31e-06
Cc1ccc(C(=O)C(C)CN2CCCCC2)cc1 (centres undefined),maximum recommended daily dose (mmol/kg-bw/day),[3],0.0204
CCN(CC)CCC1(c2ccccc2)CCC(=O)NC1=O (centres undefined),maximum recommended daily dose (mmol/kg-bw/day),"TherapeuticCategory: anticholinergic, antiparkinsonian",0.00289
CN1CCC2=C(C1)C(c1ccccc1)c1ccccc12 (centres undefined),maximum recommended daily dose (mmol/kg-bw/day),[4],0.00957
C[C@H](O)C(=O)Nc1c(I)c(C(=O)NC(CO)CO)c(I)c(C(=O)NC(CO)CO)c1I,maximum recommended daily dose (mmol/kg-bw/day),[1],0.129
COc1ccc(NS(=O)(=O)c2ccc(N)cc2)nn1,maximum recommended daily dose (mmol/kg-bw/day),[2],0.0892
Cc1cc(=O)[nH]c(=S)[nH]1,maximum recommended daily dose (mmol/kg-bw/day),TherapeuticCategory: thyroid inhibitor,0.0703
CC(=O)Nc1ccc(OC(=O)c2ccccc2OC(C)=O)cc1,maximum recommended daily dose (mmol/kg-bw/day),"TherapeuticCategory: analgesic, antipyretic, anti inflammatory",0.425
OCC(Br)(Br)Br,maximum recommended daily dose (mmol/kg-bw/day),TherapeuticCategory: anesthetic,0.354
Cc1oncc1C(=O)Nc1ccc(C(F)(F)F)cc1,maximum recommended daily dose (mmol/kg-bw/day),"TherapeuticCategory: antirheuematic, immunosuppressant",0.00123
O=C(O)C1CCc2cc(C3CCCCC3)c(Cl)cc21 (centres undefined),maximum recommended daily dose (mmol/kg-bw/day),"TherapeuticCategory: anti inflammatory, antipyretic",0.00269
CN[C@@H]1[C@H](O[C@H]2[C@H](O[C@H]3[C@H](O)[C@@H](O)[C@H](N=C(N)N)[C@@H](O)[C@@H]3N=C(N)N)O[C@@H](C)[C@]2(O)C=O)O[C@@H](CO)[C@H](O[C@@H]2O[C@H](CO)[C@@H](O)[C@H](O)[C@@H]2O)[C@H]1O,maximum recommended daily dose (mmol/kg-bw/day),[2],0.0269
CC(C)NCC(O)COc1ccc(COCCOC(C)C)cc1 (centres undefined),maximum recommended daily dose (mmol/kg-bw/day),TherapeuticCategory: antihypertensive,0.00102
CN(C/C=C/C#CC(C)(C)C)Cc1cccc2ccccc12,maximum recommended daily dose (mmol/kg-bw/day),[5],0.0926
CN1C(=O)CN=C(c2ccccc2)c2cc(Cl)ccc21,maximum recommended daily dose (mmol/kg-bw/day),[6],0.00234
CCSc1ccc2c(c1)N(CCCN1CCN(C)CC1)c1ccccc1S2,maximum recommended daily dose (mmol/kg-bw/day),TherapeuticCategory: antiemetic,0.00125
CC(C)(O)c1ccccc1CC[C@@H](SCC1(CC(=O)O)CC1)c1cccc(/C=C/c2ccc3ccc(Cl)cc3n2)c1,maximum recommended daily dose (mmol/kg-bw/day),TherapeuticCategory: antiasthmatic,0.000285
CCC(C)C(C(=O)OC1CCN(C)CC1)c1ccccc1 (centres undefined),maximum recommended daily dose (mmol/kg-bw/day),TherapeuticCategory: anticholinergic,0.00173
CC(=O)O[C@H]1CC[C@@]2(C)C(=CC[C@@H]3[C@@H]2CC[C@]2(C)C(=O)CC[C@@H]32)C1,maximum recommended daily dose (mmol/kg-bw/day),TherapeuticCategory: androgen,0.0101
OC[C@H]1O[C@H](O[C@H]2[C@H](O)[C@@H](O)[C@H](O)O[C@@H]2CO)[C@H](O)[C@@H](O)[C@@H]1O,maximum recommended daily dose (mmol/kg-bw/day),TherapeuticCategory: none,0.292
C=C[C@H]1CN2CC[C@H]1C[C@@H]2[C@@H](O)c1ccnc2ccc(OC)cc12,maximum recommended daily dose (mmol/kg-bw/day),TherapeuticCategory: anthiarrythmic,0.0308
CC(=O)Oc1cc(C(C)C)c(OCCN(C)C)cc1C,maximum recommended daily dose (mmol/kg-bw/day),TherapeuticCategory: vasodilator,0.0191
CN[C@H]1[C@@H](O)[C@H](O[C@H]2O[C@H]([C@H](C)N)CC[C@H]2N)[C@@H](N)[C@H](O)[C@@H]1OC,maximum recommended daily dose (mmol/kg-bw/day),[2],0.0191
CCCCCCC(=O)O[C@H]1CC[C@H]2[C@@H]3CCc4cc(O)ccc4[C@H]3CC[C@]12C,maximum recommended daily dose (mmol/kg-bw/day),TherapeuticCategory: estrogen,0.0013
N=C(N)c1ccc(/C=C/c2ccc(C(=N)N)cc2O)cc1,maximum recommended daily dose (mmol/kg-bw/day),TherapeuticCategory: antiprotozoal,0.0149
CC(C)c1ccc2oc3nc(N)c(C(=O)O)cc3c(=O)c2c1,maximum recommended daily dose (mmol/kg-bw/day),"TherapeuticCategory: antiallergic, antiasthmatic",0.00838
Nc1ncnc2c1ncn2[C@@H]1O[C@H](COP(=O)(O)O)[C@@H](O)[C@H]1O,maximum recommended daily dose (mmol/kg-bw/day),[7],0.000959
CNCCCC1c2ccccc2C=Cc2ccccc21,maximum recommended daily dose (mmol/kg-bw/day),TherapeuticCategory: antidepressant,0.0038
CC(=O)O[C@H]1C[C@@H]2CC[C@@H]3[C@H](CC[C@@]4(C)[C@H]3C[C@H](N3CC[N+](C)(C)CC3)[C@@H]4OC(C)=O)[C@@]2(C)C[C@@H]1N1CC[N+](C)(C)CC1,maximum recommended daily dose (mmol/kg-bw/day),[3],0.000118
N#CC(CCN1CCC(C(=O)O)(c2ccccc2)CC1)(c1ccccc1)c1ccccc1,maximum recommended daily dose (mmol/kg-bw/day),"TherapeuticCategory: antiperistaltic, antidiarrheal",0.000313
O=C1CSC2(CCN(CCCN3c4ccccc4Sc4ccc(Cl)cc43)CC2)N1,maximum recommended daily dose (mmol/kg-bw/day),[8],0.0155
CN/C(=C\[N+](=O)[O-])NCCSCc1csc(CN(C)C)n1,maximum recommended daily dose (mmol/kg-bw/day),TherapeuticCategory: antiulcerative,0.0151
CC(CN1c2ccccc2Sc2ccccc21)N(C)C (centres undefined),maximum recommended daily dose (mmol/kg-bw/day),[4],0.00587
CCc1nc(N)nc(N)c1-c1ccc(Cl)cc1,maximum recommended daily dose (mmol/kg-bw/day),TherapeuticCategory: antimalarial,0.00503
O=C(O)C1CSCN1 (centres undefined),maximum recommended daily dose (mmol/kg-bw/day),TherapeuticCategory: choleretic,0.0751
C[N+](C)(C)CC(O)CC(=O)[O-] (centres undefined),maximum recommended daily dose (mmol/kg-bw/day),TherapeuticCategory: antihyperlipoproteinemic,0.104
CCC(=O)c1ccc(O)cc1,maximum recommended daily dose (mmol/kg-bw/day),TherapeuticCategory: pituitary gonadotrophic hormone inhibitor,0.333
C=CC[N+]1([C@H]2C[C@H]3[C@@H]4CC[C@H]5C[C@H](O)[C@@H](N6CCOCC6)C[C@]5(C)[C@H]4CC[C@]3(C)[C@H]2OC(C)=O)CCCC1,maximum recommended daily dose (mmol/kg-bw/day),"TherapeuticCategory: skeletal muscle relaxant, neuromuscular blocker",0.00197
COc1ccccc1OCC1CNC(=O)O1 (centres undefined),maximum recommended daily dose (mmol/kg-bw/day),[6],0.0896
CCOc1ccccc1C(N)=O,maximum recommended daily dose (mmol/kg-bw/day),TherapeuticCategory: analgesic,0.404
C[N+](C)(CCOc1ccccc1)Cc1ccccc1,maximum recommended daily dose (mmol/kg-bw/day),TherapeuticCategory: anthelmintic,0.163 and 0.094
COC(=O)CCc1ccc(OCC(O)CNC(C)C)cc1 (centres undefined),maximum recommended daily dose (mmol/kg-bw/day),[7],0.000677
NC(=O)c1ncn([C@@H]2O[C@H](CO)[C@@H](O)[C@H]2O)n1,maximum recommended daily dose (mmol/kg-bw/day),TherapeuticCategory: antiviral,0.819
CO/N=C(/C(=O)N[C@@H]1C(=O)N2C(C(=O)OC(C)OC(C)=O)=C(COC(N)=O)CS[C@H]12)c1ccco1 (some centres undefined),maximum recommended daily dose (mmol/kg-bw/day),[2],0.0327
N#Cc1ccc(C(c2ccc(C#N)cc2)n2cncn2)cc1,maximum recommended daily dose (mmol/kg-bw/day),TherapeuticCategory: antineoplastic,0.000146
CC(C)(CO)C(O)C(=O)NCCCO (centres undefined),maximum recommended daily dose (mmol/kg-bw/day),TherapeuticCategory: cholinergic,0.0406
COc1cc(C)c(/C=C/C(C)=C/C=C/C(C)=C/C(=O)O)c(C)c1C,maximum recommended daily dose (mmol/kg-bw/day),TherapeuticCategory: antipsoriatic,0.00383
C=CCN1C(=O)C(CC(C)C)NC1=S (centres undefined),maximum recommended daily dose (mmol/kg-bw/day),TherapeuticCategory: anticonvulsant,0.188
CC1=C(/C=C/C(C)=C/C=C/C(C)=C\C(=O)O)C(C)(C)CCC1,maximum recommended daily dose (mmol/kg-bw/day),TherapeuticCategory: keratolytic,0.00666
CC(=O)OCC(=O)[C@@]1(O)[C@H](C)C[C@H]2[C@@H]3CCC4=CC(=O)C=C[C@]4(C)[C@@]3(F)C(O)C[C@@]21C (some centres undefined),maximum recommended daily dose (mmol/kg-bw/day),"TherapeuticCategory: glucocorticoid, anti inflammatory",0.000345
CC1(C)O[C@@H]2[C@@H](CO[C@@]3(COS(N)(=O)=O)OC(C)(C)O[C@@H]23)O1,maximum recommended daily dose (mmol/kg-bw/day),TherapeuticCategory: antiepileptic,0.0197
CC1(O)CCC(C(C)(C)O)CC1 (centres undefined),maximum recommended daily dose (mmol/kg-bw/day),TherapeuticCategory: cis form hydrate as expectorant,0.116
CN1CCCCC1CCN1c2ccccc2Sc2ccc(S(C)=O)cc21 (centres undefined),maximum recommended daily dose (mmol/kg-bw/day),[8],0.0129
Clc1ccc(COC(Cn2ccnc2)c2ccc(Cl)cc2Cl)c(Cl)c1 (centres undefined),maximum recommended daily dose (mmol/kg-bw/day),[5],0.144
CCc1oc2ccccc2c1C(=O)c1cc(Br)c(O)c(Br)c1,maximum recommended daily dose (mmol/kg-bw/day),TherapeuticCategory: uricosuric,0.0118
CC[C@]1(O)CC[C@H]2[C@@H]3CCC4=CC(=O)CC[C@@H]4[C@H]3CC[C@@]21C,maximum recommended daily dose (mmol/kg-bw/day),TherapeuticCategory: androgen,0.00165
CO[C@@]1(NC(=O)C(C(=O)O)c2ccc(O)cc2)C(=O)N2C(C(=O)O)=C(CSc3nnnn3C)CO[C@@H]21 (some centres undefined),maximum recommended daily dose (mmol/kg-bw/day),[2],0.128
COc1ccc2c(c1)[C@]13CCCC[C@@H]1[C@H](C2)N(C)CC3,maximum recommended daily dose (mmol/kg-bw/day),TherapeuticCategory: antitussive,0.00737
O=C(O)c1ccccc1C(=O)Nc1ccc(S(=O)(=O)Nc2nccs2)cc1,maximum recommended daily dose (mmol/kg-bw/day),[2],0.496
O=C(O)c1cc(=O)c2c(OCC(O)COc3cccc4oc(C(=O)O)cc(=O)c34)cccc2o1,maximum recommended daily dose (mmol/kg-bw/day),"TherapeuticCategory: prophylactic antiasthmatic, antiallergic",0.0284
